Where “and” joins values, the source holds several entries; their conditions need not be identical. Equal entries are not always repeated. Numbered stars: 1 amine (or outer) side, 2 acyl side, 3 side chain; on linkers, the order of the positions; unused ones are H or OH. Side chains are listed from the residue outwards. Ends that are not written are not given here. Peptide text beside a SMILES is read from it. * marks the point of attachment. γGlu = O=C(O)[C@H](CCC(=O)[*:2])N[*:1]; Palmitoyl = CCCCCCCCCCCCCCCC(=O)*; Ahx = NCCCCCC(=O)O
Assays:
Human GIPr = target: T1, Human GIPr (Homo sapiens, UniProt P48546); experiment: cAMP activity assay in assay medium (assay 1); type: cell-based; conditions: assay medium; Table 4; read-out: hGIPR EC50
T1 construct: expressed in transfected cells
T1 sequence (P48546 22-466): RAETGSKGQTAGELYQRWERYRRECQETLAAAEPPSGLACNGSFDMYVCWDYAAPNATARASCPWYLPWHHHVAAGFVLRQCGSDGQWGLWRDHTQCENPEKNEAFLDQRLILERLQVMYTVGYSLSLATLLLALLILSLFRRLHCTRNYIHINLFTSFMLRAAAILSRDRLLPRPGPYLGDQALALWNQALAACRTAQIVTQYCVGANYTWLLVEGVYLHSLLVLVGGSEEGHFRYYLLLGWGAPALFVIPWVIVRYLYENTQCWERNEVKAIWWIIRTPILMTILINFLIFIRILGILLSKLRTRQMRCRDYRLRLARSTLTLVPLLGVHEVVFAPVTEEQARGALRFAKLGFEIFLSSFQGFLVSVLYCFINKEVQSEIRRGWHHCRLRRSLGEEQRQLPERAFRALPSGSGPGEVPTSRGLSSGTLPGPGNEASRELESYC
From the text: (§1) Biological Activity of Peptides in Cell-Based cAMP Activity Assay (Assay 1):
(§2) All sample dilutions were made in duplicate.

Human GlucR = target: T2, Human GlucR (Homo sapiens, UniProt P47871); experiment: cAMP activity assay in assay medium (assay 1); type: cell-based; conditions: assay medium; Table 4; read-out: hGlucR EC50
T2 construct: expressed in transfected cells
From the text: as §1, §2

Human GLP1R = Human GLP1R (Homo sapiens, UniProt P43220); experiment: cAMP activity assay in assay medium (assay 1); type: cell-based; parameters: expressed in transfected cells; conditions: assay medium; Table 4; read-out: hGLP1R EC50
From the text: as §1, §2

[1] = rat plasma (frozen blank plasma, thawed); conditions: 37° C., up to 48 hours
[2] = mouse plasma (frozen blank plasma, thawed); conditions: 37° C., up to 48 hours
[3] = human plasma (frozen blank plasma, thawed); conditions: 37° C., up to 48 hours

Sequence of Human GLP1R (P43220 24-463): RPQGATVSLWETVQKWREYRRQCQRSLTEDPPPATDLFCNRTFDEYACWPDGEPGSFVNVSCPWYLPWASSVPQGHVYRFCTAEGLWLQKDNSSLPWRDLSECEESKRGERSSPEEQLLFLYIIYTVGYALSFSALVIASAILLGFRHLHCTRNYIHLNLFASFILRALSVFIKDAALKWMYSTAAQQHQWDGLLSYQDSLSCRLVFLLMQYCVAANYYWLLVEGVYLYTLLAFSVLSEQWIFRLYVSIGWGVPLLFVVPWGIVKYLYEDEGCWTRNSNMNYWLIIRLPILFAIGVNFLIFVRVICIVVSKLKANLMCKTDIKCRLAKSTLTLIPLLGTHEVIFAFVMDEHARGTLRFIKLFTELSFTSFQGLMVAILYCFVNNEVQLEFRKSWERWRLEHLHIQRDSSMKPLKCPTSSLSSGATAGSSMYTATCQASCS
T2 sequence (P47871 26-477): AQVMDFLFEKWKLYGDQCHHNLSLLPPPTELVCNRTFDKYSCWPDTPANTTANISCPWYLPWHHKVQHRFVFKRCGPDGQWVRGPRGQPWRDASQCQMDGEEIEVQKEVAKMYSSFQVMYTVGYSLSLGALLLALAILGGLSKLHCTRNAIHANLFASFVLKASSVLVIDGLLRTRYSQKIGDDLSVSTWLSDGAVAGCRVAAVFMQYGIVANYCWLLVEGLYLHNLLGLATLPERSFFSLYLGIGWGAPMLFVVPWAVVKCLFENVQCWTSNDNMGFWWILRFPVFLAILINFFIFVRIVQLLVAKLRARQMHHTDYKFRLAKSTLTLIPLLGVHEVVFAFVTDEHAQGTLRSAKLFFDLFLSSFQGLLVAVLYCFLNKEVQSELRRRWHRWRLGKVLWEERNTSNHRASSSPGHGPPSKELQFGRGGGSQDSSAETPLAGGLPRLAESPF

Compound	EC50 (Human GIPr)	EC50 (Human GlucR)	EC50 (Human GLP1R)	fragment found [1]	fragment found [2]	not cleaved [3]
CCCCCCCCCCCCCCCC(=O)N[C@@H](CCC(=O)NCCCC[C@H](NC(=O)[C@H](CO)NC(=O)[C@H](CC(=O)O)NC(=O)[C@H](CC(C)C)NC(=O)[C@H](Cc1ccc(O)cc1)NC(=O)[C@H](CCC(=O)O)NC(=O)[C@H](CO)NC(=O)[C@H](Cc1ccc(O)cc1)NC(=O)[C@H](CC(=O)O)NC(=O)[C@H](CO)NC(=O)[C@@H](NC(=O)[C@H](Cc1ccccc1)NC(=O)[C@@H](NC(=O)CNC(=O)[C@H](CCC(N)=O)NC(=O)[C@H](CO)NC(=O)[C@@H](N)Cc1c[nH]cn1)[C@@H](C)O)[C@@H](C)O)C(=O)N[C@@H](CCCNC(=N)N)C(=O)N[C@@H](C)C(=O)N[C@@H](CCCNC(=N)N)C(=O)N[C@@H](CC(=O)O)C(=O)N[C@@H](Cc1ccccc1)C(=O)N[C@H](C(=O)N[C@@H](C)C(=O)N[C@@H](Cc1c[nH]c2ccccc12)C(=O)N[C@@H](CC(C)C)C(=O)N[C@@H](CCC(=O)O)C(=O)N[C@@H](C)C(=O)NCC(=O)NCC(N)=O)C(C)C)C(=O)O [g837] (H-HSQGTFTSDYSEYLDSK([γGlu-Palmitoyl])RARDFVAWLEAGG-NH2; N-terminus assumed)	114 nM	0.213 nM	0.467 nM			
CCCCCCCCCCCCCCCC(=O)NCCCCCC(=O)NCCCC[C@H](NC(=O)[C@H](CO)NC(=O)[C@H](CC(=O)O)NC(=O)[C@H](CC(C)C)NC(=O)[C@H](Cc1ccc(O)cc1)NC(=O)[C@H](CCC(=O)O)NC(=O)[C@H](CO)NC(=O)[C@H](Cc1ccc(O)cc1)NC(=O)[C@H](CC(=O)O)NC(=O)[C@H](CO)NC(=O)[C@@H](NC(=O)[C@H](Cc1ccccc1)NC(=O)[C@@H](NC(=O)CNC(=O)[C@H](CCC(N)=O)NC(=O)[C@H](CO)NC(=O)[C@@H](N)Cc1c[nH]cn1)[C@@H](C)O)[C@@H](C)O)C(=O)N[C@@H](CCCNC(=N)N)C(=O)N[C@@H](C)C(=O)N[C@@H](CCCNC(=N)N)C(=O)N[C@@H](CC(=O)O)C(=O)N[C@@H](Cc1ccccc1)C(=O)N[C@H](C(=O)N[C@@H](C)C(=O)N[C@@H](Cc1c[nH]c2ccccc12)C(=O)N[C@@H](CC(C)C)C(=O)N[C@@H](CCC(=O)O)C(=O)N[C@@H](C)C(=O)NCC(=O)NCC(N)=O)C(C)C [g838] (H-HSQGTFTSDYSEYLDSK([Ahx-Palmitoyl])RARDFVAWLEAGG-NH2; N-terminus assumed)	84.3 nM	0.00568 nM	0.0237 nM			
HSQGTFTSDXSEYLDSERARDFVAWLEAGG-amide ×10 = K(gE-palm)				DPP cleaved product, minor	DPP cleaved product, minor	
HSQGTFTSDXSRYLDSRSARDFVAWLEAGG-amide ×10 = K(gE-palm)				DPP cleaved product	DPP cleaved product	100% stable peptide at 24 h
HSQGTFTSDYSKXLDSERARDFVAWLVAGG-amide ×13 = K(gE-palm)				DPP cleaved product	DPP cleaved product and +1 DPP cleaved product	100% stable peptide at 24 h
HSQGTFTSDYSKYLDSERARDFVAWLEAGG-NH2 [g840]	102 nM	0.0053 nM	0.145 nM			
HSQGTFTSDYSKYLDSRRAQDFVQWLVRGGKNNRNNIAK-NH2 [g321]	6.41 nM	0.0279 nM	0.0272 nM			

Other lines, results leading:

EC50 (Human GIPr)	EC50 (Human GlucR)	EC50 (Human GLP1R)	fragment found [1]	fragment found [2]	not cleaved [3]	Compound
88.3 nM	0.00831 nM	0.0512 nM				CCCCCCCCCCCCCCCC(=O)N[C@@H](CCC(=O)NCCCC[C@H](NC(=O)[C@H](CCCNC(=N)N)NC(=O)[C@H](CO)NC(=O)[C@H](Cc1ccc(O)cc1)NC(=O)[C@H](CC(=O)O)NC(=O)[C@H](CO)NC(=O)[C@@H](NC(=O)[C@H](Cc1ccccc1)NC(=O)[C@@H](NC(=O)CNC(=O)[C@H](CCC(N)=O)NC(=O)[C@H](CO)NC(=O)[C@@H](N)Cc1c[nH]cn1)[C@@H](C)O)[C@@H](C)O)C(=O)N[C@@H](CC(C)C)C(=O)N[C@@H](CC(=O)O)C(=O)N[C@@H](CO)C(=O)N[C@@H](CCC(=O)O)C(=O)N[C@@H](CCCNC(=N)N)C(=O)N[C@@H](C)C(=O)N[C@@H](CCCNC(=N)N)C(=O)N[C@@H](CC(=O)O)C(=O)N[C@@H](Cc1ccccc1)C(=O)N[C@H](C(=O)N[C@@H](C)C(=O)N[C@@H](Cc1c[nH]c2ccccc12)C(=O)N[C@@H](CC(C)C)C(=O)N[C@H](C(=O)N[C@@H](C)C(=O)NCC(=O)NCC(=O)O)C(C)C)C(C)C)C(=O)O [g842] (H-HSQGTFTSDYSRK([γGlu-Palmitoyl])LDSERARDFVAWLVAGG-OH; N-terminus assumed)
11.8 nM	0.0341 nM	0.0438 nM				CCCCCCCCCCCCCCCC(=O)N[C@@H](CCC(=O)NCCCC[C@H](NC(=O)[C@H](Cc1ccc(O)cc1)NC(=O)[C@H](CCC(=O)O)NC(=O)[C@H](CO)NC(=O)[C@H](Cc1ccc(O)cc1)NC(=O)[C@H](CC(=O)O)NC(=O)[C@H](CO)NC(=O)[C@@H](NC(=O)[C@H](Cc1ccccc1)NC(=O)[C@@H](NC(=O)CNC(=O)[C@H](CCC(N)=O)NC(=O)[C@H](CO)NC(=O)[C@@H](N)Cc1c[nH]cn1)[C@@H](C)O)[C@@H](C)O)C(=O)N[C@@H](CC(=O)O)C(=O)N[C@@H](CO)C(=O)N[C@@H](CCC(=O)O)C(=O)N[C@@H](CCCNC(=N)N)C(=O)N[C@@H](C)C(=O)N[C@@H](CCCNC(=N)N)C(=O)N[C@@H](CC(=O)O)C(=O)N[C@@H](Cc1ccccc1)C(=O)N[C@H](C(=O)N[C@@H](C)C(=O)N[C@@H](Cc1c[nH]c2ccccc12)C(=O)N[C@@H](CC(C)C)C(=O)N[C@H](C(=O)N[C@@H](C)C(=O)NCC(=O)NCC(N)=O)C(C)C)C(C)C)C(=O)O [g846] (H-HSQGTFTSDYSEYK([γGlu-Palmitoyl])DSERARDFVAWLVAGG-NH2; N-terminus assumed)
41.7 nM	0.00704 nM	0.0448 nM				CCCCCCCCCCCCCCCC(=O)N[C@@H](CCC(=O)NCCCC[C@H](NC(=O)[C@H](CO)NC(=O)[C@H](CC(=O)O)NC(=O)[C@H](CC(C)C)NC(=O)[C@H](Cc1ccc(O)cc1)NC(=O)[C@H](CCCCN)NC(=O)[C@H](CO)NC(=O)[C@H](Cc1ccc(O)cc1)NC(=O)[C@H](CC(=O)O)NC(=O)[C@H](CO)NC(=O)[C@@H](NC(=O)[C@H](Cc1ccccc1)NC(=O)[C@@H](NC(=O)CNC(=O)[C@H](CCC(N)=O)NC(=O)[C@H](CO)NC(=O)[C@@H](N)Cc1c[nH]cn1)[C@@H](C)O)[C@@H](C)O)C(=O)N[C@@H](CCCNC(=N)N)C(=O)N[C@@H](C)C(=O)N[C@@H](CCCNC(=N)N)C(=O)N[C@@H](CC(=O)O)C(=O)N[C@@H](Cc1ccccc1)C(=O)N[C@H](C(=O)N[C@@H](C)C(=O)N[C@@H](Cc1c[nH]c2ccccc12)C(=O)N[C@@H](CC(C)C)C(=O)N[C@H](C(=O)N[C@@H](C)C(=O)NCC(=O)NCC(N)=O)C(C)C)C(C)C)C(=O)O [g867] (H-HSQGTFTSDYSKYLDSK([γGlu-Palmitoyl])RARDFVAWLVAGG-NH2; N-terminus assumed)
79 nM	0.0104 nM	0.0863 nM				CCCCCCCCCCCCCCCC(=O)N[C@@H](CCC(=O)NCCCC[C@H](NC(=O)[C@H](Cc1ccc(O)cc1)NC(=O)[C@H](CCC(=O)O)NC(=O)[C@H](CO)NC(=O)[C@H](Cc1ccc(O)cc1)NC(=O)[C@H](CC(=O)O)NC(=O)[C@H](CO)NC(=O)[C@@H](NC(=O)[C@H](Cc1ccccc1)NC(=O)[C@@H](NC(=O)CNC(=O)[C@H](CCC(N)=O)NC(=O)[C@H](CO)NC(=O)[C@@H](N)Cc1c[nH]cn1)[C@@H](C)O)[C@@H](C)O)C(=O)N[C@@H](CC(=O)O)C(=O)N[C@@H](CO)C(=O)N[C@@H](CCCNC(=N)N)C(=O)N[C@@H](CCCNC(=N)N)C(=O)N[C@@H](C)C(=O)N[C@@H](CCCNC(=N)N)C(=O)N[C@@H](CC(=O)O)C(=O)N[C@@H](Cc1ccccc1)C(=O)N[C@H](C(=O)N[C@@H](CCC(=O)O)C(=O)N[C@@H](Cc1c[nH]c2ccccc12)C(=O)N[C@@H](CC(C)C)C(=O)N[C@@H](CCC(=O)O)C(=O)N[C@@H](C)C(=O)NCC(=O)NCC(N)=O)C(C)C)C(=O)O [g876] (H-HSQGTFTSDYSEYK([γGlu-Palmitoyl])DSRRARDFVEWLEAGG-NH2; N-terminus assumed)

Source: patent publication US20200354426A1 (MEDIMMUNE LIMITED, priority 2016, published 2020)
